Measurements as given in doi:10.1101/662718v1 (biorxiv, 2019).

What was measured:
ecATCase [1] = target: T1, ecATCase (Escherichia coli, UniProt P0A786); assay: ITC; assay type: binding; conditions: 50 mM Tris-acetate pH 8.3, no Asp
T1 sequence (P0A786 2-311): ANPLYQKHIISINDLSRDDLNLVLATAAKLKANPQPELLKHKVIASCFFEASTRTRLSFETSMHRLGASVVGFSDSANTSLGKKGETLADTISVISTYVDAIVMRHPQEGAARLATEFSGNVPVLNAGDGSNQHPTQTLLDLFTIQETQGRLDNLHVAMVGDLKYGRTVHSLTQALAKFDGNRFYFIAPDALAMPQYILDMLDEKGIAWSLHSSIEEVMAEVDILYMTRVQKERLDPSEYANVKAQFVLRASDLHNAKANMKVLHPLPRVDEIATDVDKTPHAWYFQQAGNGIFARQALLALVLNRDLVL

ecATCase [2] = target: T1, ecATCase; assay: colorimetric ATCase activity assay, dose-response fit; assay type: biochemical
huATCase = target: T2, huATCase (Homo sapiens, UniProt P27708); assay: as above; assay type: biochemical
T2 sequence (P27708 1915-2225 limits assumed): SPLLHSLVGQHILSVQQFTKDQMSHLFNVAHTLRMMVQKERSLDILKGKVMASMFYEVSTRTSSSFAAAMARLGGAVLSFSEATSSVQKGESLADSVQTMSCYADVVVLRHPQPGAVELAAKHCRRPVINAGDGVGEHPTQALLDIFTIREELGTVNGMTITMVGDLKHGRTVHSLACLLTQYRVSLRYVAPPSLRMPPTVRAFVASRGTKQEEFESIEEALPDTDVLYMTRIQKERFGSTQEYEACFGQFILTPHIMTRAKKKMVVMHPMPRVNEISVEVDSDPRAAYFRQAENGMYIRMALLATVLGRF

Compound | KD (ecATCase [1]) | IC50 (ecATCase [2]) [µM] | IC50 (huATCase) [µM]
NC(=O)OP(=O)(O)O [CP] | all ATCase variants were able to bind CP | – | –
O=c1[nH]c2ccc(Nc3nc4nonc4nc3N/N=C/c3ccccc3OCc3ccc(Cl)cc3Cl)cc2[nH]1 [YD19] | – | 1.8 ± 0.4 | 4.1 ± 1.9
CC(C(=O)Oc1ccc(C2C3=C(Nc4[nH]c(=O)n(C)c(=O)c42)c2ccccc2C3=O)cc1)N1C(=O)c2ccccc2C1=O (centres unmarked) [YD21] | – | 5 ± 1.4 | 15.4 ± 1.6
